How the values were obtained:
PC12 cells = experiment: Differentiation of PC12 cells (Example 2); assay type: cell-based
synaptophysin [1] = experiment: Synaptophysin levels in PC12 cells after treatment, Western immunoblot (Example 1); assay type: cell-based
Experimental: PC12 cells were first grown to 70-80% confluence in the regular medium. A day prior to the experiment, PC12 cells were subcultured uniformly onto the plate with minimum cellular aggregation/clumping to approximately 1×10^6 cells per 60-mm plate. The PC12 cells were then subjected to treatments with either AIT-082, NGF, bFGF or a combination as previously described (5). AIT-082 was added into separate plates at […]: 0, 5, 20, 30, 50, 100, 300 ng/ml and also 1, 3, 10, 30, 100 μg/ml. For comparative purposes, cultures were treated with NGF at 10 and 50 ng/ml, and bFGF was used at 50 ng/ml. Additional cultures contained both AIT-082 (300 ng/ml) and either NGF (50 ng/ml) or bFGF (50 ng/ml). These different agents were prepared in the same culture medium and added to the respective plate. Following incubation for 48 hours, the conditioned medium from each plate was collected.
Total proteins from the conditioned media were analyzed on a 12% polyacrylamide gel containing SDS (SDS-PAGE), and western blot analysis was performed in the Mini-PROTEAN II system of Bio-Rad as described previously (7). Levels of synaptophysin in the conditioned medium and the cell lysates (intracellular) were analyzed using an anti-synaptophysin antibody (Boehringer Mannheim). A biotinylated secondary antibody, horse anti-mouse (Boehringer Mannheim), was also used. The detection system was based on the avidin-biotinylated-complex (Vector labs, Burlingame, Calif.) and enzymatic color reactions.

synaptophysin [2] = experiment: Time course of synaptophysin accumulation after administration to PC12 cells, Western immunoblot (Example 2); assay type: cell-based
Experimental: To determine the time course of synaptophysin accumulation in the extracellular fluid after administration of AIT-082 or NGF to PC12 cells, an experiment similar to the experiment of Example 1 was carried out using multiple time points. Five to six million PC12 cells were treated in RPMI 1640 and 0.5% FBS with doses of AIT-082 (10 nM-100 μM). […] Levels of synaptophysin in samples from conditioned media and cell lysates were measured by Western immunoblotting with anti-synaptophysin antibodies.

[3] = test system: nerve growth factor (NGF), neurotrophin-3, and basic fibroblast growth factor (bFGF); details: reference 4 (Rathbone et al. 1999); cited from earlier work

Compound	effect of cotreatment on NGF-mediated differentiation (PC12 cells; cotreatment with NGF)	dose giving the highest level of synaptophysin (synaptophysin [1]; PC12 cells, conditioned medium, densitometry, FIG. 2)	amount of synaptophysin in the conditioned medium vs. control (synaptophysin [1]; PC12 cells, dose-dependent from 5-30 ng/ml, FIG. 1 lanes 5-8 vs. lane 1)	level of synaptophysin in the conditioned medium vs. control at higher doses (synaptophysin [1]; PC12 cells, doses above 30 ng/ml, increase not sustained to the same extent)	intracellular levels of synaptophysin vs. control (synaptophysin [1]; PC12 cultures, cell lysates)	levels of synaptophysin in the conditioned medium vs. control (synaptophysin [2]; 10 nM-100 μM, 6, 12, 24, 48, or 72 hours, each time point)	intracellular levels of synaptophysin (synaptophysin [2]; cell lysates, 10 nM-100 μM)	induction of expression of neurotrophins [3]	phenotype after treatment (PC12 cells)
O=C(CCn1cnc2c(=O)[nH]cnc21)Nc1ccc(C(=O)O)cc1 [AIT-082, N-4-carboxyphenyl-3-(6-oxohydropurin-9-yl)propanamide]	enhanced NGF-mediated differentiation	30 ng/mL	increased	still greater than the control	significant increase	significantly increased	significant increase	can induce the expression of at least three neurotrophins	
NGF: Nerve growth factor procured from Life Technologies									sympathetic neuronal phenotypes

From US20020040032A1, “Methods for stimulation of synthesis of synaptophysin in the central nervous system” (priority 2000, published 2002)
